Test results taken from ChEMBL document CHEMBL5338805, “Discovery of the First Subnanomolar PPARα/δ Dual Agonist for the Treatment of Cholestatic Liver Diseases” (J Med Chem, 2023).
The source made the active and inactive calls. The rule behind the calls is not given here.

Columns and labels:
[1] = In vivo upregulation of PPAR delta in C57BL/6JNifdc mouse liver administered at 0.03 mg/kg, po for 3 days measured after 6 hrs of last administration by real-time PCR analysis; format: ADME, organism-based; conditions: 78 h
[2] = Acute toxicity in mouse assessed as lethal dose administered orally for 14 days; conditions: in vivo, po, 336 h, time 14 day
[3] = target: Thyroid hormone receptor beta (Homo sapiens) (UniProt P10828); assay: Agonist activity at THRbeta (unknown origin) transfected in african green monkey COS7 cells assessed transactivation incubated at 1 uM for 16 hrs by luciferase assay; format: cell-based
[4] = target: Nuclear receptor ROR-beta (Homo sapiens) (UniProt Q92753); assay: Agonist activity at RORbeta (unknown origin) transfected in african green monkey COS7 cells assessed transactivation incubated at 1 uM for 16 hrs by luciferase assay; format: cell-based
[5] = Clearance in fasted Sprague-Dawley rat at 10 mg/kg, po measured at 0.083 to 24 hrs by LC-MS/MS analysis; format: ADME, organism-based; conditions: in vivo, time 0.083-24 hrs
[6] = Anti-cholestatic activity in ANIT-induced C57BL/6Nifdc mouse model assessed as downregulation of proinflammatory Tnf gene at 0.03 to 0.1 mg/kg, po upto 42 hrs measured after 48 hrs; format: ADME, organism-based; conditions: in vivo, 90 h, dose 0.03-0.1 mg/kg
[7] = Anti-cholestatic activity in ANIT-induced C57BL/6Nifdc mouse model assessed as decrease in liver GCA at 0.03 to 0.1 mg/kg, po upto 42 hrs measured after 48 hrs; format: ADME, organism-based; conditions: in vivo, 90 h, dose 0.03-0.1 mg/kg
HEK293 = assay: Cytotoxicity against HEK293 cells incubated upto 100 uM for 24 hrs by CCK8 assay; format: toxicity, cell-based; conditions: human, hek293, 24 h
[8] = Anti-cholestatic activity in ANIT-induced C57BL/6Nifdc mouse model assessed as decrease in liver beta-MCA at 0.03 to 0.1 mg/kg, po upto 42 hrs measured after 48 hrs; format: ADME, organism-based; conditions: in vivo, 90 h, dose 0.03-0.1 mg/kg
[9] = AUC in fasted Sprague-Dawley rat at 2 mg/kg, IV measured at 0.083 to 24 hrs by LC-MS/MS analysis; format: ADME, organism-based; design: dose 2 mg/kg, time upper 24 hrs, time lower 0.083 hrs, route iv; conditions: in vivo
[10] = Down-streaming of Cyp7a1 gene expression in C57BL/6JNifdc mouse liver assessed as hepatic resorption of bile acid administered at 0.03 to 0.1 mg/kg, po for 3 days measured after 6 hrs of last administration by real-time PCR analysis; format: ADME, organism-based; conditions: in vivo, 78 h, dose 0.03-0.1 mg/kg, time 3.25 day
[11] = Anti-cholestatic activity in ANIT-induced C57BL/6Nifdc mouse model assessed as decrease in liver T-MCA at 0.03 to 0.1 mg/kg, po upto 42 hrs measured after 48 hrs; format: ADME, organism-based; conditions: in vivo, 90 h, dose 0.03-0.1 mg/kg
[12] = Stability in human liver microsome assessed as half life at 1 uM by LC/MS-8050 analysis; format: ADME; conditions: liver microsomes
[13] = target: Nuclear receptor ROR-gamma (Homo sapiens) (UniProt P51449); assay: Agonist activity at RORgamma (unknown origin) transfected in african green monkey COS7 cells assessed transactivation incubated at 1 uM for 16 hrs by luciferase assay; format: cell-based
[14] = target: Peroxisome proliferator-activated receptor delta (Homo sapiens) (UniProt Q03181); conditions: filed as agonist, dose 0.625-10 µM
Description: Binding affinity to PPARdelta LBD (unknown origin) assessed as thermal stability by measuring change in melting temperature by thermal shift assay

[15] = Acute toxicity in mouse assessed as moribundity administered at 2000 mg/kg, po for 14 days; format: organism-based; conditions: in vivo, 336 h, time 14 day
[16] = Down-streaming of Cyp27a1 gene expression in C57BL/6JNifdc mouse liver assessed as hepatic resorption of bile acid administered at 0.03 to 0.1 mg/kg, po for 3 days measured after 6 hrs of last administration by real-time PCR analysis; format: ADME, organism-based; conditions: in vivo, 78 h, dose 0.03-0.1 mg/kg, time 3.25 day
[17] = Clearance in fasted Sprague-Dawley rat at 2 mg/kg, IV measured at 0.083 to 24 hrs by LC-MS/MS analysis; format: ADME, organism-based; conditions: in vivo, time 0.083-24 hrs
COS-7 = assay: Cytotoxicity against african green monkey COS7 cells incubated upto 100 uM for 24 hrs by CCK8 assay; format: toxicity, cell-based; conditions: chlorocebus aethiops, cos-7, 24 h
[18] = Anti-fibrosis activity in Ccl4-induced C57BL/6Nifdc mouse model assessed as decrease in serum triglyceride level administered at 0.03 to 0.1 mg/kg,po for 3 weeks; format: ADME, organism-based; conditions: in vivo, 504 h, dose 0.03-0.1 mg/kg
[19] = Down-streaming of NTCP gene expression in C57BL/6JNifdc mouse liver assessed as hepatic resorption of bile acid administered at 0.03 mg/kg, po for 3 days measured after 6 hrs of last administration by real-time PCR analysis; format: ADME, organism-based; conditions: in vivo, 78 h
[20] = target: Voltage-gated inwardly rectifying potassium channel KCNH2 (Homo sapiens, UniProt Q12809); assay: Inhibition of human ERG by whole cell patch clamp method; format: toxicity
[21] = Anti-fibrosis activity in Ccl4-induced C57BL/6Nifdc mouse model assessed as decrease in hydroxyproline in liver administered orally for 3 weeks; format: ADME; conditions: in vivo, po, 504 h, dose 0.03-0.1 mg/kg
[22] = target: Retinoic acid receptor alpha (Homo sapiens) (UniProt P10276); assay: Agonist activity at RARalpha (unknown origin) transfected in african green monkey COS7 cells assessed transactivation incubated at 1 uM for 16 hrs by luciferase assay; format: cell-based
[23] = Down-streaming of Oatp1 gene expression in C57BL/6JNifdc mouse liver assessed as hepatic resorption of bile acid administered at 0.03 to 0.1 mg/kg, po for 3 days measured after 6 hrs of last administration by real-time PCR analysis; format: ADME, organism-based; conditions: in vivo, 78 h, dose 0.03-0.1 mg/kg, time 3.25 day
[24] = Anti-cholestatic activity in ANIT-induced C57BL/6Nifdc mouse model assessed as downregulation of NF-kappaB signalling pathway at 0.03 to 0.1 mg/kg, po upto 42 hrs measured after 48 hrs; format: ADME, organism-based; conditions: in vivo, 90 h, dose 0.03-0.1 mg/kg
[25] = Upregulation of Mrp3 gene expression in C57BL/6JNifdc mouse liver assessed as increased efflux of bile acid administered at 0.03 to 0.1 mg/kg, po for 3 days measured after 6 hrs of last administration by real-time PCR analysis; format: ADME, organism-based; conditions: in vivo, 78 h, dose 0.03-0.1 mg/kg, time 3.25 day
[26] = Anti-cholestatic activity in ANIT-induced C57BL/6Nifdc mouse model assessed as decrease in liver UCA at 0.03 to 0.1 mg/kg, po upto 42 hrs measured after 48 hrs; format: ADME, organism-based; conditions: in vivo, 90 h, dose 0.03-0.1 mg/kg
[27] = target: Oxysterols receptor LXR-alpha (Homo sapiens) (UniProt Q13133); assay: Agonist activity at LXRalpha (unknown origin) transfected in african green monkey COS7 cells assessed transactivation incubated at 1 uM for 16 hrs by luciferase assay; format: cell-based
[28] = In vivo upregulation of PPAR delta in C57BL/6JNifdc mouse liver administered orally for 3 days measured after 6 hrs of last administration by real-time PCR analysis; format: ADME, organism-based; conditions: po, 78 h, dose 0.03-0.1 mg/kg
[29] = target: Retinoic acid receptor RXR-beta (Homo sapiens) (UniProt P28702); assay: Agonist activity at RXRbeta (unknown origin) transfected in african green monkey COS7 cells assessed transactivation incubated at 1 uM for 16 hrs by luciferase assay; format: cell-based
[30] = Anti-cholestatic activity in ANIT-induced C57BL/6Nifdc mouse model assessed as decrease in liver GHCA at 0.03 to 0.1 mg/kg, po upto 42 hrs measured after 48 hrs; format: ADME, organism-based; conditions: in vivo, 90 h, dose 0.03-0.1 mg/kg

Thyroid hormone receptor beta (Homo sapiens), sequence (P10828 whole entry): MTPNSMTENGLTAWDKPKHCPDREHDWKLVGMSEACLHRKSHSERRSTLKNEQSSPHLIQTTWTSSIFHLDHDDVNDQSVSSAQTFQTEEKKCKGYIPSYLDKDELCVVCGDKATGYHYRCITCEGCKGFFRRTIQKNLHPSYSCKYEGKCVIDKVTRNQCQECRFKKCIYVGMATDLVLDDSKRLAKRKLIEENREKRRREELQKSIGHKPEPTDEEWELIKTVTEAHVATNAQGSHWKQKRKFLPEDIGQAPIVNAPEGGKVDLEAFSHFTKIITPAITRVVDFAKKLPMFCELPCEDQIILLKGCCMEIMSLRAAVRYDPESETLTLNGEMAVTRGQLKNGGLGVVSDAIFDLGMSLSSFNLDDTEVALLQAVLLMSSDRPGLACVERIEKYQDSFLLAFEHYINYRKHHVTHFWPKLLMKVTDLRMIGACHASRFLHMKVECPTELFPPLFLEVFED
Retinoic acid receptor alpha (Homo sapiens), sequence (P10276 whole entry): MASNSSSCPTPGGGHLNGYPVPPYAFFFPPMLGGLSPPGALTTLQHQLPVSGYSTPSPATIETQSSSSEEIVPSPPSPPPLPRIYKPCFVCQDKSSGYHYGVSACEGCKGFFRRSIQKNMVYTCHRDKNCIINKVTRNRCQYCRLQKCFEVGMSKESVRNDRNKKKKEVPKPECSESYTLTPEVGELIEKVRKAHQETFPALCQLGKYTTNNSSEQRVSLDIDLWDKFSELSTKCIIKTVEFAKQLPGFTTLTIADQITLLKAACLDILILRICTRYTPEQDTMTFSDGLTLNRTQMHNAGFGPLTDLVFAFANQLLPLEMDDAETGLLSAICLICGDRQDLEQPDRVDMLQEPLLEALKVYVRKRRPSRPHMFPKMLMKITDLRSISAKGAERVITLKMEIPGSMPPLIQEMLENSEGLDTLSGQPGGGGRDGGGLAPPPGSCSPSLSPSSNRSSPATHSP
Voltage-gated inwardly rectifying potassium channel KCNH2, sequence (Q12809 whole entry): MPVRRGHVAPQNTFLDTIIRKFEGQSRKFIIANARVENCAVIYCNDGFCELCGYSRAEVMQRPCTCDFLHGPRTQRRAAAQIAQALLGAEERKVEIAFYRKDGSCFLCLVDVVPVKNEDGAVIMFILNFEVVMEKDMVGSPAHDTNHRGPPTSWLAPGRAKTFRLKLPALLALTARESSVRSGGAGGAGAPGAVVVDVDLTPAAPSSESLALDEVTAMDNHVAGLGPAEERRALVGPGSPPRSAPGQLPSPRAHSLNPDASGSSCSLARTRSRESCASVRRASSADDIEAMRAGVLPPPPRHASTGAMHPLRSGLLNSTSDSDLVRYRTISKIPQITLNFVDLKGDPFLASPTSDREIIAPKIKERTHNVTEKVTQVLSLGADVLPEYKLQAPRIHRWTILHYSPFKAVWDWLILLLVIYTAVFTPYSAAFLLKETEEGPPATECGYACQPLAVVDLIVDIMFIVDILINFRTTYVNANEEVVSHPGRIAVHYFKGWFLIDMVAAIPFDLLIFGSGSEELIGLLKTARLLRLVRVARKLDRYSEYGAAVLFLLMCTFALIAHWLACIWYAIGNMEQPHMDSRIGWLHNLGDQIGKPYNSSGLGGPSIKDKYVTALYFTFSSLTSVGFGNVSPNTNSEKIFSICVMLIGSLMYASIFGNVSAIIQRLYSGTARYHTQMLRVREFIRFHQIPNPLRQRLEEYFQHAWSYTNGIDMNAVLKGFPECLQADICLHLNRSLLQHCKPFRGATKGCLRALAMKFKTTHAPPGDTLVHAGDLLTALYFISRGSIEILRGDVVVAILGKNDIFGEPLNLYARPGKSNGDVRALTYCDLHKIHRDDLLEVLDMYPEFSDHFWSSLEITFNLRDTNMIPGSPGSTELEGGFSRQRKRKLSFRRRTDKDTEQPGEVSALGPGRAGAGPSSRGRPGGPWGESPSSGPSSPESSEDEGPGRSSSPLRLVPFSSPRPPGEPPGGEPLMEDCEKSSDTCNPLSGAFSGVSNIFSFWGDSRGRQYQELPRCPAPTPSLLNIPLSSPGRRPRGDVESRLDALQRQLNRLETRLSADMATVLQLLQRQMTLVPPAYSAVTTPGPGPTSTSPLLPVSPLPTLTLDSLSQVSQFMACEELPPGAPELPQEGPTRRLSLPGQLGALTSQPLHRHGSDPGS
Peroxisome proliferator-activated receptor delta (Homo sapiens), sequence (Q03181 whole entry): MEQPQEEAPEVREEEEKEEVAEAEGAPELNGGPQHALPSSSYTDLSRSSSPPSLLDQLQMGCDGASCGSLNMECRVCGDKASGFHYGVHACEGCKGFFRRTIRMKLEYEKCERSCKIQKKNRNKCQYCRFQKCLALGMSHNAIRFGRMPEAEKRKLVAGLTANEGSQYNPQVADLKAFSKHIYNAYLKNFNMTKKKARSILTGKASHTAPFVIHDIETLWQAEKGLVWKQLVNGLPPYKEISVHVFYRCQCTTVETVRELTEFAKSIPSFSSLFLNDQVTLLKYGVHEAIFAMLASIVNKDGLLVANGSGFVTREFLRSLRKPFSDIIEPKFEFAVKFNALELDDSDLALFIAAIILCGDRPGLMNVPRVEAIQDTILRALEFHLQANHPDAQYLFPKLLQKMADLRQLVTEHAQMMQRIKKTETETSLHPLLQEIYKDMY
Oxysterols receptor LXR-alpha (Homo sapiens), sequence (Q13133 whole entry): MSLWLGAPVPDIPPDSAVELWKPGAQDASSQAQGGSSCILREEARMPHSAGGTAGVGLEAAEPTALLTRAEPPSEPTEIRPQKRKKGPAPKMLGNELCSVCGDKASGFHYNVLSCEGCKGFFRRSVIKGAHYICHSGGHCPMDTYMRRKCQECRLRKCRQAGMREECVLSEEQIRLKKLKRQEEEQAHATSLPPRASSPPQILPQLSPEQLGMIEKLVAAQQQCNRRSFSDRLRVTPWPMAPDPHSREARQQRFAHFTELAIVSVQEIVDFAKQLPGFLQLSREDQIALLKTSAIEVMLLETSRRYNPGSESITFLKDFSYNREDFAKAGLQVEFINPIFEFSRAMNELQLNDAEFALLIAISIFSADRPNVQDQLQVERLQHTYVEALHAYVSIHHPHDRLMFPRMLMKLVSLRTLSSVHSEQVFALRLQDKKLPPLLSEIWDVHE
Nuclear receptor ROR-beta (Homo sapiens), sequence (Q92753 whole entry): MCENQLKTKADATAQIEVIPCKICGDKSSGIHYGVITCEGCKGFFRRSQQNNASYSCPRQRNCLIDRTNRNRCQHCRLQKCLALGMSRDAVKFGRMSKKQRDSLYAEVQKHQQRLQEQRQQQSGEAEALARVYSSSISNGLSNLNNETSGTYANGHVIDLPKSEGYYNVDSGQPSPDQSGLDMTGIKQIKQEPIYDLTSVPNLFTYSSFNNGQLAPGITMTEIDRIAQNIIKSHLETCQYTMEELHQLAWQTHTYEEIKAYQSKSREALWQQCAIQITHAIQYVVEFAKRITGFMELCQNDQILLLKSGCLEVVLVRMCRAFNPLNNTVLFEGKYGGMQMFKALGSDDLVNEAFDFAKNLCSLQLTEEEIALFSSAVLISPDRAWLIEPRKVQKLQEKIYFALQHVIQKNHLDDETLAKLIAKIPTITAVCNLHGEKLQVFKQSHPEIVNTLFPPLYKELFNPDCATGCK
Retinoic acid receptor RXR-beta (Homo sapiens), sequence (P28702 whole entry): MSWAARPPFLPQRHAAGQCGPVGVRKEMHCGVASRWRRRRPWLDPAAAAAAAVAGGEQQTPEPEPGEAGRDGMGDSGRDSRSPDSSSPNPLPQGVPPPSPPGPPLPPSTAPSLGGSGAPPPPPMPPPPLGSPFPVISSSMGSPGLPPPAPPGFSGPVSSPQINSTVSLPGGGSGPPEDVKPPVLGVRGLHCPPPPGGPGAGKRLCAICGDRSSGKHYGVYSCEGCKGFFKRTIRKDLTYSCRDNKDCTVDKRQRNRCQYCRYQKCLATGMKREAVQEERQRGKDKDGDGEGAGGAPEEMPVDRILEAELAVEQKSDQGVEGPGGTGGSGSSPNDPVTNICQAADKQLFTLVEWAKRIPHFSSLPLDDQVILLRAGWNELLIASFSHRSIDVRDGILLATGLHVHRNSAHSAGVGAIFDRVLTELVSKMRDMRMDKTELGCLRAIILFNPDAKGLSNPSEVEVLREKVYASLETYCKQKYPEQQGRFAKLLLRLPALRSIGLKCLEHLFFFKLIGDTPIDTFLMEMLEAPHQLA
Nuclear receptor ROR-gamma (Homo sapiens), sequence (P51449 whole entry): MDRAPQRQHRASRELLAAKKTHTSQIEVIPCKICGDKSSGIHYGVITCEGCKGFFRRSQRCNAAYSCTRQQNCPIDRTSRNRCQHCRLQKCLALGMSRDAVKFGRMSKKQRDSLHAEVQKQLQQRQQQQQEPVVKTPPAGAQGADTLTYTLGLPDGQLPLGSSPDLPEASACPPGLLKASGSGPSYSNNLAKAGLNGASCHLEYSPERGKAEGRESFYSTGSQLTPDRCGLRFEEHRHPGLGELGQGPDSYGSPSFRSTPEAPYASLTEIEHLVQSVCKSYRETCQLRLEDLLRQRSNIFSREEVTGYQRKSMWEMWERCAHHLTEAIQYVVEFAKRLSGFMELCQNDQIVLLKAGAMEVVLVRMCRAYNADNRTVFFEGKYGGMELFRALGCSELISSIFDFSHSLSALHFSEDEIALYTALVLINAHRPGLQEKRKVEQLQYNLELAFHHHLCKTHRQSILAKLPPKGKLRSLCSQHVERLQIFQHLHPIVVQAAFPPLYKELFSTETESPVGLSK

For Cc1cc(CN2C(=O)CN(c3ccc(C(F)(F)F)cc3)C2=O)cc(C)c1OC(C)(C)C(=O)O, the Activity [1] was “Active”, the LD [2] was > 2000 mg/kg and the Activity [3] was “inactive”. The Activity [4] was “inactive”, the CL [5] was 0.456 L/h/kg and the Activity [6] was “Active”. For the same compound, the Activity [7] was “Active”, the Activity (HEK293) was “Non-Toxic” and the Activity [8] was “Active”. For the same compound, the AUC [9] was 4.25 µg·h/mL, the Activity [10] was “Active” and the Activity [11] was “Active”. For the same compound, the half-life at 1 µM [12] was > 2 h, the Activity [13] was “inactive” and the deltaTm [14] was “Dose-Dependent Effect”. The Activity [15] was “Non-Toxic”, the Activity [16] was “Active” and the CL [17] was 0.504 L/h/kg. For the same compound, the Activity (COS-7) was “Non-Toxic”, the Activity [18] was “Active” and the Activity [19] was “Active”. The IC50 [20] was > 30 µM, the Activity [21] was “Dose-Dependent Effect” and the Activity [22] was “inactive”. The Activity [23] was “Active”, the Activity [24] was “Active” and the Activity [25] was “Active”. The Activity [26] was “Active”, the Activity [27] was “inactive” and the Activity [28] was “Dose-Dependent Effect”. The Activity [29] was “inactive” and the Activity [30] was “Active”.
